# Values quoted from earlier work in patent US8088918B2, “Noncardiotoxic pharmaceutical compounds” (Williamsburg Holdings LLC, priority 2004, dated 2012).
# What was measured:
# [1] = human plasma; cited from earlier work
# [2] = parent drugs; cited from earlier work
# [3] = healthy volunteers, therapeutic plasma concentrations; cited from earlier work
# CYP2D6 = CYP2D6 (Homo sapiens, UniProt P10635); details: cited from earlier work
# [4] = oral administration; cited from earlier work
# [5] = preclinical and clinical studies; cited from earlier work
# CYP2D6, sequence (P10635 whole entry): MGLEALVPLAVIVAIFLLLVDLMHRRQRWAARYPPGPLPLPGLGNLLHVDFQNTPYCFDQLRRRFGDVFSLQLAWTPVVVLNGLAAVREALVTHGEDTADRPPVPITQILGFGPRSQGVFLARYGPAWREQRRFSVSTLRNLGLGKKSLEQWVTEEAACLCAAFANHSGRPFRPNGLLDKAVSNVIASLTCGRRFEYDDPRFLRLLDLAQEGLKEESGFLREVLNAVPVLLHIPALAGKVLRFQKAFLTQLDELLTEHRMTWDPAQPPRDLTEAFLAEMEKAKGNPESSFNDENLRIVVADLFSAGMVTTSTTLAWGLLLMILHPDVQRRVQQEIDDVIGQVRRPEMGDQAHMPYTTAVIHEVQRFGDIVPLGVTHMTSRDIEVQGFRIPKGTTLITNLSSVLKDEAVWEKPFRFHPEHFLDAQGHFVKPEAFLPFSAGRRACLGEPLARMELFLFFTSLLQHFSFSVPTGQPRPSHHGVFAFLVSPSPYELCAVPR
structure (smiles),measurement,setting,value
Fc1ccc([C@@H]2CCNC[C@H]2COc2ccc3c(c2)OCO3)cc1 [paroxetine],AUC(0-24),[1],96.5 ng·h/mL
same,Cmax,[1],8.60 ng/mL
same,Tmax,[1],5 (3-5) hours
same,pKa,[2],9.90
CC(CC(c1ccccc1)c1ccccc1)NC(C)(C)C (centres unmarked) [terodiline],increase in mean QTc,[3],23 ms
"C[N+](C)([O-])CCCN1c2ccccc2CCc2ccccc21 [imipramine-N-oxide, Imipramine-N-oxide]",metabolism by CYP2D6 to the hydroxymetabolite,CYP2D6,abolished the metabolism of imipramine by CYP2D6 to the hydroxymetabolite
same,systemic availability,[4],about 100%
same,cardiotoxicity compared with imipramine,[5],significantly reduced
